In brackets after ≈: the same amount, converted by molar mass. Several values for one entry are separate records, joined by “and”; a condition that tells them apart may be missing. Equal values may be shown once.
What was measured:
[1] = test system: K. pneumoniae ATCC 700603; assay: disc diffusion assay; format: cell-based, Klebsiella pneumoniae; settings: 0.15 μmol per 6 mm disc
Method: (§1) In the performed disc diffusion assays, indole derivatives (S)-13h, (S)-13i, and (S)-13j caused promising halos of growth inhibition.
(§2) The disc diffusion assays against E. coli TOP10 (Thermo Fisher, Waltham, USA), E. coli ATCC 35218, K. pneumoniae ATCC 700603, and P. aeruginosa ATCC 27853 were performed as follows: the bacteria were grown overnight on a Columbia blood agar plate (Oxoid, Basingstoke, UK), and one colony was suspended in sterile saline to yield a suspension of 0.5 McFarland standard. Using a sterile swab, the suspension was spread evenly onto Mueller–Hinton agar (Oxoid, Basingstoke, UK). 0.15 μmol of each compound (dissolved in 10 μL DMSO) was applied onto circular 6 mm diameter filter paper disks, which were then placed on the agar. After incubating the agar plates for 20 h at 37 °C, the diameter of the zone of growth inhibition was measured for each compound.

E. coli LpxC C63A = biological target: T1, E. coli LpxC C63A (Escherichia coli, UniProt P0A725, C63A); assay: fluorescence-based E. coli LpxC C63A enzyme inhibition assay; format: biochemical; settings: Ki E. coli LpxC C63A, from IC50 via Cheng–Prusoff
T1 construct: made in house; host or cells: E. coli BL21(DE3)
T1 sequence (P0A725 whole entry C63A): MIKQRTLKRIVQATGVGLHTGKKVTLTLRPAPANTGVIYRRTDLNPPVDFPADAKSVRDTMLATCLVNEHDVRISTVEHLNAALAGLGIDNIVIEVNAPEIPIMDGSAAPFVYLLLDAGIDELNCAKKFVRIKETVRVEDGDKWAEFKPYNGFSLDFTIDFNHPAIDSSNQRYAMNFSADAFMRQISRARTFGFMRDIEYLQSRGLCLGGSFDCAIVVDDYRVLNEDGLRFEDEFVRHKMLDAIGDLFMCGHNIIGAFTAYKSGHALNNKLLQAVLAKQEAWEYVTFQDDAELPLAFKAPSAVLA
Outline: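 Purified E. coli LpxC C63A (15 nM) was incubated with 25 µM UDP-3-O-[(R)-3-hydroxymyristoyl]-GlcNAc in MES pH 6.0 buffer (2% DMSO) for 30 min at 37 °C. Compounds ranged from 20 nM to 20 µM. Product was derivatized with o-phthaldialdehyde/2-mercaptoethanol and read by fluorescence (ex 340/em 460), with IC50 converted to Ki via Cheng–Prusoff.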

E. coli D22 [2] = assay: disc diffusion assay; format: cell-based; settings: 0.15 μmol per 6 mm disc
E. coli BL21(DE3) [3] = assay: disc diffusion assay; format: cell-based; settings: 0.15 μmol per 6 mm disc
E. coli D22 [4] = assay: MIC, broth microdilution; format: cell-based; settings: Escherichia coli, 20 h, 37 °C, LB
Outline: (§3)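 LB broth microdilution, inoculum 5 × 10^5 cfu mL^–1, 5% DMSO, 2-fold compound series 64–0.016 μg mL^–1 final, incubated 20 h at 37 °C. MIC was the lowest concentration preventing visible growth, from at least three runs on separate days.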

E. coli BL21(DE3) [5] = assay: MIC, broth microdilution; format: cell-based; settings: 20 h, 37 °C, LB; for MIC: Escherichia coli
Outline: as §3

E. coli TOP10 = assay: disc diffusion assay; format: cell-based; settings: 0.15 μmol per 6 mm disc
Method: as §1, §2

E. coli ATCC 35218 = assay: disc diffusion assay; format: cell-based; settings: 0.15 μmol per 6 mm disc
Method: as §1, §2

P. aeruginosa ATCC 27853 = assay: disc diffusion assay; format: cell-based; settings: 0.15 μmol per 6 mm disc
Method: as §1, §2

| Structure (SMILES) | Inhibition zone K. pneumoniae ATCC 700603 [1] | Ki (E. coli LpxC C63A) | Inhibition zone E. coli D22 (E. coli D22 [2]) | Inhibition zone E. coli BL21(DE3) (E. coli BL21(DE3) [3]) | MIC (E. coli D22 [4]) | MIC E. coli BL21(DE3) (E. coli BL21(DE3) [5]) | MIC (E. coli BL21(DE3) [5]) | Inhibition zone E. coli TOP 10 (E. coli TOP10) | Inhibition zone E. coli ATCC 35218 (E. coli ATCC 35218) | Inhibition zone P. aeruginosa ATCC 27853 (P. aeruginosa ATCC 27853) |
| --- | --- | --- | --- | --- | --- | --- | --- | --- | --- | --- |
| O=C(NC[C@H](OCc1ccc(C#Cc2ccc(CN3CCOCC3)cc2)cc1)C(=O)NO)c1c[nH]c2ccccc12 [(S)-13h] | 6.7 ± 1.2 mm | 10.7 ± 1.2 nM | 29.3 ± 1.6 mm | 19.7 ± 1.6 mm | 0.031 µg/mL (≈ 0.0561 µM) | 1.0 µg/mL (≈ 1.81 µM) | 1 to 4 µg/mL (≈ 1.81 to 7.24 µM) | 18.7 ± 5.8 mm | 19.0 ± 1.0 mm | 7.0 ± 1.0 mm |
| O=C(NC[C@H](OCc1ccc(C#Cc2ccc(CN3CCOCC3)cc2)cc1)C(=O)NO)c1ccc2[nH]ccc2c1 [(S)-13j] | 8.0 ± 1.7 mm | 9.5 nM and 9.45 nM | 29.0 ± 1.6 mm | 20.0 ± 1.0 mm | 0.031 µg/mL (≈ 0.0561 µM) | 2.0 µg/mL (≈ 3.62 µM) | 1 to 4 µg/mL (≈ 1.81 to 7.24 µM) | 22.3 ± 3.8 mm | 21.0 ± 1.0 mm | 8.3 ± 0.6 mm |
| O=C(NC[C@H](OCc1ccc(C#Cc2ccc(CN3CCOCC3)cc2)cc1)C(=O)NO)c1ccc[nH]1 [(S)-13k] | 9.5 ± 0.7 mm | 97.1 ± 9.4 nM | >30 mm | 23.3 ± 0.6 mm | 0.063 µg/mL (≈ 0.125 µM) | 4.0 µg/mL (≈ 7.96 µM) | 4 to 8 µg/mL (≈ 7.96 to 15.9 µM) | 27.0 ± 2.8 mm | 23.0 ± 1.4 mm | 9.0 ± 1.4 mm |
| O=C(NC[C@H](OCc1ccc(C#Cc2ccc(CN3CCOCC3)cc2)cc1)C(=O)NO)c1cc[nH]n1 [(S)-13l] | 11.5 ± 0.7 mm | 80.9 ± 9 nM | >30 mm | 24.7 ± 0.6 mm | 0.063 µg/mL (≈ 0.125 µM) | 4.0 µg/mL (≈ 7.94 µM) | 4 to 8 µg/mL (≈ 7.94 to 15.9 µM) | 30.5 ± 0.7 mm | 25.5 ± 0.7 mm | 12.0 ± 0 mm |
| O=C(NC[C@H](OCc1ccc(C#Cc2ccc(CN3CCOCC3)cc2)cc1)C(=O)NO)c1cc(-c2ccccc2)[nH]n1 [(S)-13m] | <6 mm | 85.2 ± 21.7 nM | 24.5 ± 1.8 mm | 11.3 ± 1.6 mm | 0.063 µg/mL (≈ 0.109 µM) | 8.0 µg/mL (≈ 13.8 µM) | 4 to 8 µg/mL (≈ 6.9 to 13.8 µM) | 14.7 ± 0.6 mm | 13.0 ± 1.7 mm | <6 mm |
| Cc1noc(C)c1C(=O)NC[C@H](OCc1ccc(C#Cc2ccc(CN3CCOCC3)cc2)cc1)C(=O)NO [(S)-13n] | 7.0 ± 1.0 mm | 127 ± 40 nM | >30 mm | 20.8 ± 1.1 mm | 0.13 µg/mL (≈ 0.244 µM) |  | 16 µg/mL (≈ 30 µM) | 24.0 ± 0 mm | 20.0 ± 1.7 mm | <6 mm |
